Columns and labels:
[1] = test system: HUVEC; test: Antiangiogenic activity against human HUVEC cells assessed as inhibition of [3H]thymidine incorporation incubated for 24 hrs prior to [3H]thymidine addition measured after 6 hrs by microbeta counting analysis; format: functional, cell-based
[2] = test system: HeLa; test: Selectivity ratio of IC50 for human HeLa cells to IC50 for human HUVEC cells; format: functional
[3] = test system: HUVEC; test: Selectivity ratio of IC50 for human Jurkat T cells to IC50 for human HUVEC cells; format: functional
[4] = test system: HeLa; test: Antiproliferative activity against human HeLa cells assessed as inhibition of [3H]thymidine incorporation incubated for 24 hrs prior to [3H]thymidine addition measured after 6 hrs by microbeta counting analysis; format: functional, cell-based
[5] = test system: BT-474; test: Antiproliferative activity against human BT474 cells assessed as inhibition of [3H]thymidine incorporation incubated for 24 hrs prior to [3H]thymidine addition measured after 6 hrs by microbeta counting analysis; format: functional, cell-based
[6] = Antiproliferative activity against human Jurkat T cells assessed as inhibition of [3H]thymidine incorporation incubated for 24 hrs prior to [3H]thymidine addition measured after 6 hrs by microbeta counting analysis; format: functional, cell-based
[7] = test system: HUVEC; test: Selectivity ratio of IC50 for human BT474 cells to IC50 for human HUVEC cells; format: functional
[8] = test system: HUVEC; test: Antiangiogenic activity against human HUVEC cells assessed as inhibition of tube formation at 5 uM after 16 to 18 hrs by Calcein-AM staining-based fluorescence microscopic analysis; format: functional
[9] = test system: HUVEC; test: Antiangiogenic activity against human HUVEC cells assessed as inhibition of tube formation after 16 to 18 hrs by Calcein-AM staining-based fluorescence microscopic analysis; format: functional, cell-based

IC50 [4] | IC50 [5] | SMILES | IC50 [1] | IC50 [6] | further results
– | – | COc1ccc2c(c1)-c1nc(NC(C)=O)sc1CC2 | 4.2 µM | – | –
– | – | CCC(=O)Nc1nc2c(s1)CCc1cc(OC)c(OC)cc1-2 | > 10 µM | – | –
6.8 µM | 8.2 µM | Nc1nc2c(s1)CSc1ccccc1-2 | 1.9 µM | 0.9 µM | Ratio IC50 [2]: 3.6; Ratio IC50 [3]: 0.5; Ratio IC50 [7]: 4.3
– | – | Nc1nc2c(s1)COc1ccc(F)cc1-2 | > 10 µM | – | –
15.2 µM | > 20 µM | O=C(Nc1nc2c(s1)CCCc1ccccc1-2)c1c(F)cccc1F | 1.5 µM | > 20 µM | Ratio IC50 [2]: 10; inhibition at 5 µM [8]: 75%; Ratio IC50 [3]: >13; inhibition [9]: Dose-dependent effect; Ratio IC50 [7]: >13
5 µM | 0.3 µM | C#CCOc1ccc(C(=O)Nc2nc3c(s2)CSc2ccccc2-3)cc1 | 2.9 µM | 4.6 µM | Ratio IC50 [2]: 1.7; Ratio IC50 [3]: 1.6; Ratio IC50 [7]: 0.1
– | – | Nc1nc2c(s1)-c1ccccc1CC2 | > 10 µM | – | –
– | – | COc1ccc2c(c1)CCc1sc(NC(C)=O)nc1-2 | > 10 µM | – | –
– | – | COc1cccc2c1CCc1sc(N)nc1-2 | > 10 µM | – | –
6.5 µM | 6.2 µM | CCOC(=O)Nc1nc2c(s1)CSc1ccc(Cl)cc1-2 | 2.8 µM | 6.3 µM | Ratio IC50 [2]: 2.3; Ratio IC50 [3]: 2.3; Ratio IC50 [7]: 2.2
– | – | CCCCCC(=O)Nc1nc2c(s1)CCc1ccccc1-2 | 3 µM | – | –
> 20 µM | 3.6 µM | O=C(Nc1nc2c(s1)CSc1ccc(Cl)cc1-2)c1c(F)cccc1F | 5.2 µM | 17.3 µM | Ratio IC50 [2]: >4; Ratio IC50 [3]: 3.3; Ratio IC50 [7]: 0.7
– | – | Nc1nc2c(s1)CCc1ccccc1-2 | > 10 µM | – | –
– | – | [N-]=[N+]=NCCCCCCNc1nc2c(s1)CSc1ccccc1-2 | 5.9 µM | – | –
– | – | CCC(=O)Nc1nc2c(s1)Cc1cc(F)ccc1-2 | > 10 µM | – | –
– | – | C#CCOc1ccc(C(=O)Nc2nc3c(s2)CCCc2ccccc2-3)cc1 | 7.3 µM | – | –
– | – | Nc1nc(-c2ccc(Cl)cc2)cs1 | > 10 µM | – | –
– | – | COc1ccc2c(c1)CCc1sc(N)nc1-2 | > 10 µM | – | –
– | – | CC(=O)Nc1nc2c(s1)CCc1ccccc1-2 | > 10 µM | – | –
– | – | COc1ccc2c(c1)CCc1sc(NCc3ccco3)nc1-2 | 4.5 µM | – | –
– | – | Nc1nc2c(s1)CCOc1cc3c(cc1-2)OCO3 | 5.1 µM | – | –
– | – | CCC(=O)Nc1nc2c(s1)COc1ccc(F)cc1-2 | > 10 µM | – | –
– | – | COc1cccc2c1CCc1sc(NC(C)=O)nc1-2 | > 10 µM | – | –
– | – | COc1ccc(-c2csc(NC(C)=O)n2)cc1OC | > 10 µM | – | –

IC50 [4] | IC50 [5] | SMILES | IC50 [1] | IC50 [6] | further results
– | – | COc1ccc(-c2csc(N)n2)cc1OC | > 10 µM | – | –
5.9 µM | > 20 µM | CCC(=O)N(C(=O)CC)c1nc2c(s1)CCCc1ccccc1-2 | 1.5 µM | 2.8 µM | Ratio IC50 [2]: 4; Ratio IC50 [3]: 1.9; Ratio IC50 [7]: >13
– | – | CC(=O)Nc1nc(-c2ccc(Cl)cc2)cs1 | > 10 µM | – | –
– | – | CCC(=O)Nc1nc2c(s1)CCCC2 | > 10 µM | – | –
– | – | CCC(=O)Nc1nc2c(s1)COc1ccccc1-2 | > 10 µM | – | –
– | – | COc1ccc2c(c1)Cc1sc(N)nc1-2 | > 10 µM | – | –
– | – | COc1ccc2c(c1)Cc1sc(NC(C)=O)nc1-2 | 4.4 µM | – | –
– | – | COc1cc2c(cc1OC)-c1nc(N)sc1CC2 | > 10 µM | – | –
11.9 µM | 3.8 µM | Nc1nc2c(s1)CSc1ccc(Cl)cc1-2 | 1.9 µM | 1.6 µM | Ratio IC50 [2]: 6.3; Ratio IC50 [3]: 0.8; Ratio IC50 [7]: 2
8 µM | 5.9 µM | CCC(=O)Nc1nc2c(s1)CSc1ccccc1-2 | 2 µM | 4.9 µM | Ratio IC50 [2]: 4; Ratio IC50 [3]: 2.5; Ratio IC50 [7]: 3
> 20 µM | > 20 µM | CCOC(=O)Nc1nc2c(s1)CCCc1ccccc1-2 | 9.2 µM | > 20 µM | –
– | – | Nc1nc2c(s1)COc1ccccc1-2 | > 10 µM | – | –
> 20 µM | > 20 µM | CCC(=O)Nc1nc2c(s1)CCCc1ccccc1-2 | 3.7 µM | > 20 µM | Ratio IC50 [2]: >5; Ratio IC50 [3]: >5; Ratio IC50 [7]: >5
> 20 µM | > 20 µM | O=C(Nc1nc2c(s1)CCCc1ccc(F)cc1-2)c1c(F)cccc1F | 13.5 µM | > 20 µM | –
> 20 µM | > 20 µM | Nc1nc2c(s1)CCCc1ccccc1-2 | 19.1 µM | > 20 µM | –
– | – | Nc1nc2c(s1)Cc1cc(F)ccc1-2 | > 10 µM | – | –
10.3 µM | 2.3 µM | Clc1ccc2c(c1)-c1nc(NCc3ccco3)sc1CS2 | 1.1 µM | 2.5 µM | Ratio IC50 [2]: 9.4; Ratio IC50 [3]: 2.3; inhibition [9]: Dose-dependent effect; Ratio IC50 [7]: 2.1
16.2 µM | > 20 µM | Nc1nc2c(s1)CCCc1ccc(F)cc1-2 | 14.8 µM | > 20 µM | –
13.1 µM | 7.2 µM | O=C(Nc1nc2c(s1)CSc1ccccc1-2)c1c(F)cccc1F | 12 µM | 11.8 µM | –
– | – | CCCCCC(=O)Nc1nc2c(s1)CCc1cc(OC)ccc1-2 | 3.7 µM | – | –
– | – | CC(=O)Nc1nc2c(s1)-c1ccccc1CC2 | > 10 µM | – | –
– | – | Nc1nc2c(s1)CCCC2 | > 10 µM | – | –
– | – | COc1ccc2c(c1)-c1nc(N)sc1CC2 | > 10 µM | – | –

Reference: ChEMBL document CHEMBL2375231, “Tricyclic thiazoles are a new class of angiogenesis inhibitors” (Bioorg Med Chem Lett, 2013)
